This is an account of results in US20240156874A1, “METHODS FOR GENERATING STEM CELL-DERIVED BETA CELLS AND USES THEREOF” (President and Fellows of Harvard College, priority 2014, published 2024).

In one assay the test system is beta cells. The settings on record: Table 1, background knowledge on the screened compounds; cited from earlier work.
Assay [1] deals with SC-β cells. In words: In vitro SC-β cell function screen: stimulation index of SC-β cells generated with the agent. Format: cell-based, human. Conditions: FIG. 1A. As for the experimental part: Stimulation index=[insulin@20 mM glucose]/[insulin@2 mM glucose]. Relative Stim Index=Stim Index/Stim Index of Control.
FIG. 3 is a schematic illustration depicting an overview of the chemicals used and approach for the initial screen.

The next assay concerns the target T1, ALK5 (Homo sapiens, UniProt P36897).
T1 sequence (P36897 34-503): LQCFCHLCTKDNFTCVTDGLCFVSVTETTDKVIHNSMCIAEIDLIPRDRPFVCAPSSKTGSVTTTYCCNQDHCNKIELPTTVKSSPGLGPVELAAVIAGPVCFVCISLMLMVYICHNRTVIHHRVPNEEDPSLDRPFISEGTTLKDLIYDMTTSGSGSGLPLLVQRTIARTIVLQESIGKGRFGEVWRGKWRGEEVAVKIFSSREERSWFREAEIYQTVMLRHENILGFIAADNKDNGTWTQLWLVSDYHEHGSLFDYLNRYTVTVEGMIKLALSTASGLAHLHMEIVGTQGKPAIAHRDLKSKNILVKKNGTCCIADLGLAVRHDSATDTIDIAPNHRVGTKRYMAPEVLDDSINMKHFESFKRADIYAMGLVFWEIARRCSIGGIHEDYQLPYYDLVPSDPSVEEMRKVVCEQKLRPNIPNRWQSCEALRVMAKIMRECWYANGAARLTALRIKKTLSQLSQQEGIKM
Conditions: cited from earlier work.

The target in another assay is PDGFRβ (Homo sapiens, UniProt P09619). The settings on record: cited from earlier work.
Chain of PDGFRβ (P09619 33-1106, species assumed): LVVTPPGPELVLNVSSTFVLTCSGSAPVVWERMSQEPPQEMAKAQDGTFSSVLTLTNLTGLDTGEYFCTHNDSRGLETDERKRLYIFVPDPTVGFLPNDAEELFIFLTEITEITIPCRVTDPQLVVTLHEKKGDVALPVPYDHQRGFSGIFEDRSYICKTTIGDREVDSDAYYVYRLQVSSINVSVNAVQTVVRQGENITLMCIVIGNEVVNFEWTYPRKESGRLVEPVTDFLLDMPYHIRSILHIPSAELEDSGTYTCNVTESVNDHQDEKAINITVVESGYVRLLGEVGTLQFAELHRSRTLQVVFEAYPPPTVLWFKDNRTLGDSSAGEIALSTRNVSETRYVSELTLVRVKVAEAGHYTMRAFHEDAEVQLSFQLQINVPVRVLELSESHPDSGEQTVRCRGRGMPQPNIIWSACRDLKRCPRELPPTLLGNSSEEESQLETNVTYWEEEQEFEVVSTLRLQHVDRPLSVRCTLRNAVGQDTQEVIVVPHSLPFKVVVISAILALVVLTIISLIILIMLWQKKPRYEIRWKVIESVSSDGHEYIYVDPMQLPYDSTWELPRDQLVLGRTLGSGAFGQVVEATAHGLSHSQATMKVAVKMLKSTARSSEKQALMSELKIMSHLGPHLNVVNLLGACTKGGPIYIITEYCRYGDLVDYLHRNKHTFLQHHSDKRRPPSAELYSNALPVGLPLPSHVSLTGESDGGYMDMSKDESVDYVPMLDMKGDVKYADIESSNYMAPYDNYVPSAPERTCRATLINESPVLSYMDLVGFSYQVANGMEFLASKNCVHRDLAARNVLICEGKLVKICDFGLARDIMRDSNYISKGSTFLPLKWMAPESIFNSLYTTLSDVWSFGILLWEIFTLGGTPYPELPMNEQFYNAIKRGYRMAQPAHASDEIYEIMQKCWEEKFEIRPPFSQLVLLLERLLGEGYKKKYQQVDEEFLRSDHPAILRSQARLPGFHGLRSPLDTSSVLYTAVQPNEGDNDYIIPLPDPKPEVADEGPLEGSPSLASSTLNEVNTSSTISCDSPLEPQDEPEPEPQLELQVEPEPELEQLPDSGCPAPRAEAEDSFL
Assay [2] deals with SC-β cells. Put plainly: In vivo function of SC-β cells generated with the agents, after transplantation into mice. The text has this: FIG. 4B is a Table quantifying the improvement in stimulation index and mean 30′ insulin post injection illustrated in FIG. 4A.
FIG. 5B is a Table quantifying the improvement in stimulation index and mean 30′ insulin post injection illustrated in FIG. 5A.

A further assay concerns AMPK. The settings on record: cited from earlier work.
For assay [3], the system named is BMP4-induced phosphorylation of Smads 1, 5 and 8. The settings on record: HEK293 cells; cited from earlier work.
Another assay concerns the target KDR (VEGFR-2) (Homo sapiens, UniProt P35968). Conditions: cited from earlier work.
The subject of assay [4] is p38a, p38b, p38d, JNK1, EGFR, MAPKAPK2, MKK6, ERK2, PKC, PKA, PKD, CDC2, and CaMKII. Conditions: relative to TGFRI kinase (ALK5); cited from earlier work.
A further assay addresses TGFRII (Homo sapiens, UniProt P37173). Conditions: relative to TGFRI kinase (ALK5); cited from earlier work.

Some results are limits rather than exact numbers.

Chain of TGFRII (P37173 23-567): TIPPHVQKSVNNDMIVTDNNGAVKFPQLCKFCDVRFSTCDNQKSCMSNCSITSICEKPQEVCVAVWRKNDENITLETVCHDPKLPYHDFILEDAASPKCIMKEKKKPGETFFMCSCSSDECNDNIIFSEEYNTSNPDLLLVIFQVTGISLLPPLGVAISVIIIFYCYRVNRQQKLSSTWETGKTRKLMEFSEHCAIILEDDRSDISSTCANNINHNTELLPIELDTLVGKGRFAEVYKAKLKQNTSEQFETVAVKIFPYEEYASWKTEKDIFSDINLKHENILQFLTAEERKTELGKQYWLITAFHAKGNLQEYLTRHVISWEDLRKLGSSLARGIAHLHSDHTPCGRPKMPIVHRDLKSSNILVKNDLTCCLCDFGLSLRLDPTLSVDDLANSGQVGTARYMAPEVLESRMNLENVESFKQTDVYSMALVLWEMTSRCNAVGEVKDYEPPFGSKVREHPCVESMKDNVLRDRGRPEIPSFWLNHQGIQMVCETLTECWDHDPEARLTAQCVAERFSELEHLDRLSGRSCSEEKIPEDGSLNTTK
Chain of KDR (VEGFR-2) (P35968 20-1356, species assumed): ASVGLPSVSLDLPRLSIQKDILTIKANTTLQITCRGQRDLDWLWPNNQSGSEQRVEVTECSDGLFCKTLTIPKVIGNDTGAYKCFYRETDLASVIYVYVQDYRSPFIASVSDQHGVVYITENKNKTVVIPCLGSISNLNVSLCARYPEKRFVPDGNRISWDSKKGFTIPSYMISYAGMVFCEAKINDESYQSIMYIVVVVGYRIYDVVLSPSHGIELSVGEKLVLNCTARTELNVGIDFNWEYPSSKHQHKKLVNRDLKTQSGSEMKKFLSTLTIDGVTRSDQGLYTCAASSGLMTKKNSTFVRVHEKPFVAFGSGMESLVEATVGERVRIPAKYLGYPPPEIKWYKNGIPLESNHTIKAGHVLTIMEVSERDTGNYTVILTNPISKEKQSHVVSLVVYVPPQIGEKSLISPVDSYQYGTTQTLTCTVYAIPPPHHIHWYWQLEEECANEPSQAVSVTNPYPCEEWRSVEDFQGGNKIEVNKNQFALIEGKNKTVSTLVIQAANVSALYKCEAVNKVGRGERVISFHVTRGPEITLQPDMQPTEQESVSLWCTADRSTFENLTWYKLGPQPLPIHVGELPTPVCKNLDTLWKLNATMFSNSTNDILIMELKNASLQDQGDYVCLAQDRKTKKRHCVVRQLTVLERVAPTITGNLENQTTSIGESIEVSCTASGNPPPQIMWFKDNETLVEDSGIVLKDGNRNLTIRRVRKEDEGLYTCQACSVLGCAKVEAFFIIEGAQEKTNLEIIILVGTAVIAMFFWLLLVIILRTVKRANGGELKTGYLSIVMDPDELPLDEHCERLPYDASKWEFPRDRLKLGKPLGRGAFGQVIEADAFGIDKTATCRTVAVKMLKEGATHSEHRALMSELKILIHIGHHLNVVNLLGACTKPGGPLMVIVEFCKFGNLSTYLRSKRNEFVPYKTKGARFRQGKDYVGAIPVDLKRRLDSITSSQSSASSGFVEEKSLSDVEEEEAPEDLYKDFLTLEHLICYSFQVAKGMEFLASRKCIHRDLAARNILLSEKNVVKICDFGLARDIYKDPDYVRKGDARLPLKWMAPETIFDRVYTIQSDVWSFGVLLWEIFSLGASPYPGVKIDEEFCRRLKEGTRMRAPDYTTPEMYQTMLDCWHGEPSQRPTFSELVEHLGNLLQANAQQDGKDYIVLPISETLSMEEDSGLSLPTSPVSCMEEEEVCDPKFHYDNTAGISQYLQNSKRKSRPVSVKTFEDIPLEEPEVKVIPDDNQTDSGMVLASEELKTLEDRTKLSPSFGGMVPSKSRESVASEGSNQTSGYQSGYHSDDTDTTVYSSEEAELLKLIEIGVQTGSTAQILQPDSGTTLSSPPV

With `N#CC(=C(/N)Sc1ccccc1N)/C(C#N)=C(\N)Sc1ccccc1N` [U0126], the “Effect on Beta Cells” value with beta cells is listed as “Reduced apoptosis in beta cells”. In addition, the “Stimulation index of resulting SC-β cells relative to control SC-β cells” value in the assay on SC-β cells [1] (concentration not given) is reported as “worse stimulation indices”.
With `Cc1cccc(-c2nn(C(=S)Nc3ccccc3)cc2-c2ccnc3ccccc23)n1` [A83-01], the “Effect on Beta Cells” value in the assay on beta cells is given as “Reduces apoptosis of pancreatic beta cells, increases insulin”. Further, the “Stimulation index of resulting SC-β cells relative to control SC-β cells” value in the assay with SC-β cells [1] (concentration not given) is reported as “worse stimulation indices”.
`NC(=O)c1ccc(-c2nc(-c3ccc4c(c3)OCO4)c(-c3ccccn3)[nH]2)cc1` [SB431542, 4-[4-(1,3-benzodioxol-5-yl)-5-(2-pyridinyl)-111-imidazol-2-yl]benzamide]: the “Effect on Beta Cells” value in the assay on beta cells was “Reduces apoptosis of pancreatic beta cells, increases insulin”.
On to `C[S+]([O-])c1ccc(-c2nc(-c3ccc(F)cc3)c(-c3ccncc3)[nH]2)cc1` (stereo not drawn) [SB203580], for which the “Effect on Beta Cells” value with beta cells was “Reduced apoptosis in beta cells”. For the same compound, the “Stimulation index of resulting SC-β cells relative to control SC-β cells” value with SC-β cells [1] (concentration not given) is “worse stimulation indices”.
Turning to `CC(C)Oc1ccc(-c2cnc3c(-c4ccnc5ccccc45)cnn3c2)cc1` [DMH-1, 4-[6-[4-(1-Methylethoxy)phenyl]pyrazolo[1,5-a]pyrimidin-3-yl]-quinoline], the “Inhibition of ALK5” value on ALK5 is reported as “no detectable inhibition”. The “Inhibition of PDGFRβ receptors” value on PDGFRβ is on record as “no detectable inhibition”. Also, in the assay on beta cells, the “Effect on Beta Cells” value is on record as “Aids differentiation of zebrafish beta cells”. Also, the “In vivo function of SC-β cells generated using the agent(s)” value in the assay on SC-β cells [2] (2 weeks post-transplantation into mice, FIG. 4A) is “improved in vivo function”; with SC-β cells [2] (4 weeks post-transplantation into mice, FIG. 5A) it was “improved in vivo function”. For the same compound, the “Inhibition of AMPK” value with AMPK is reported as “no detectable inhibition”. Further, the “Effect on BMP4-induced phosphorylation of Smads 1, 5 and 8” value in [3] is “block BMP4-induced phosphorylation of Smads 1, 5 and 8”. In addition, the “Stimulation index of resulting SC-β cells relative to control SC-β cells” value with SC-β cells [1] (agent 1 μM, Stimulation index=[insulin@20 mM glucose]/[insulin@2 mM glucose]) was “greater stimulation index”. The “Inhibition of KDR (VEGFR-2)” value on KDR (VEGFR-2) is “no detectable inhibition”.
With `Fc1ccc(Cl)cc1-c1nc(Nc2ccncc2)c2nccnc2n1` [SD208], the “Effect on Beta Cells” value in the assay on beta cells is recorded as “Helps maintain growth of human pancreatic cancer cells”. Moreover, the “Specificity over members of a panel of related protein kinases” value in assay [4] is listed as “at least 17 fold”. The “Specificity against TGFRII” value at TGFRII is more than 100 fold.
In the case of `Oc1ccc(-c2nc(-c3ccc(F)cc3)c(-c3ccncc3)[nH]2)cc1` [SB202190], the “Effect on Beta Cells” value in the assay with beta cells is listed as “Reduced apoptosis in beta cells”. Besides, the “Stimulation index of resulting SC-β cells relative to control SC-β cells” value with SC-β cells [1] (concentration not given) is reported as “worse stimulation indices”.
